# Toxic doses and inconclusive results are not listed.
# Tested on: L1210 leukemia ip in BDF1 mice, survival T/C
# Assay: NCI In Vivo Anticancer Drug Screen. Data for tumor model L1210 Leukemia (intraperitoneal) in B6D2F1 (BDF1) mice
# Conditions: endpoint: mean survival time, higher = longer survival
# Outline: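 Tumor cells were implanted, animals were treated, and survival was followed. The result divides the treated measurement by the vehicle-control measurement.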
# [1] = dose: 100.0 mg/kg/injection, schedule: Q01DX009 (ip), vehicle: Klucel (hydroxypropylcellulose) (HPC)
# [2] = dose: 100.0 mg/kg/injection, schedule: Q04DX003 (ip), vehicle: Klucel (hydroxypropylcellulose) (HPC)
# [3] = dose: 200.0 mg/kg/injection, schedule: Q01DX009 (ip), vehicle: Klucel (hydroxypropylcellulose) (HPC)
# [4] = dose: 200.0 mg/kg/injection, schedule: Q04DX003 (ip), vehicle: Klucel (hydroxypropylcellulose) (HPC)
# [5] = dose: 400.0 mg/kg/injection, schedule: Q01DX009 (ip), vehicle: Klucel (hydroxypropylcellulose) (HPC)
# [6] = dose: 400.0 mg/kg/injection, schedule: Q04DX003 (ip), vehicle: Klucel (hydroxypropylcellulose) (HPC)
# [7] = dose: 50.0 mg/kg/injection, schedule: Q01DX001 (ip), vehicle: carboxymethylcellulose (CMC)
# [8] = dose: 100.0 mg/kg/injection, schedule: Q01DX001 (ip), vehicle: carboxymethylcellulose (CMC)
# [9] = dose: 200.0 mg/kg/injection, schedule: Q01DX001 (ip), vehicle: carboxymethylcellulose (CMC)
# [10] = dose: 400.0 mg/kg/injection, schedule: Q01DX001 (ip), vehicle: carboxymethylcellulose (CMC)
# [11] = dose: 100.0 mg/kg/injection, schedule: Q04DX003 (ip), vehicle: saline
# [12] = dose: 100.0 mg/kg/injection, schedule: Q01DX001 (ip), vehicle: saline
# [13] = dose: 200.0 mg/kg/injection, schedule: Q01DX001 (ip), vehicle: saline
# [14] = dose: 400.0 mg/kg/injection, schedule: Q01DX001 (ip), vehicle: saline
smiles,measurement,setting,value
CC1C=CC(C)C(C(=O)c2ccccc2)C1C(=O)c1ccccc1 (stereo not drawn),T/C,[1],93 % of control
same,T/C,"dose: 100.0 mg/kg/injection, schedule: Q01DX009 (ip), vehicle: saline with Tween-80",106 % of control
same,T/C,[2],89 % of control
same,T/C,[3],94 % of control
same,T/C,"dose: 200.0 mg/kg/injection, schedule: Q01DX009 (ip), vehicle: saline with Tween-80",97 % of control
same,T/C,[4],88 % of control
same,T/C,[5],92 % of control
same,T/C,"dose: 400.0 mg/kg/injection, schedule: Q01DX009 (ip), vehicle: saline with Tween-80",93 % of control
same,T/C,[6],88 % of control
NC(=S)NC(=S)Nc1ccccc1,T/C,[2],103 % of control
same,T/C,[4],110 % of control
same,T/C,[6],106 % of control
COc1ccc2c(c1)C=Cc1ccc(Cl)cc1N2,T/C,[1],97 % of control
same,T/C,[2],98 % of control
same,T/C,[3],94 % of control
same,T/C,[4],101 % of control
same,T/C,[5],94 % of control
same,T/C,[6],104 % of control
CC(C)Cn1cnc2c(Sc3c([N+](=O)[O-])ncn3C)nc(N)nc21,T/C,"dose: 6.0 mg/kg/injection, schedule: Q01DX015 (ip), vehicle: carboxymethylcellulose (CMC)",104 % of control
same,T/C,"dose: 12.0 mg/kg/injection, schedule: Q01DX015 (ip), vehicle: carboxymethylcellulose (CMC)",111 % of control
same,T/C,"dose: 25.0 mg/kg/injection, schedule: Q01DX015 (ip), vehicle: carboxymethylcellulose (CMC)",117 % of control
same,T/C,[7],114 % of control
same,T/C,[8],117 % of control
same,T/C,[9],119 % of control
same,T/C,[10],162 % of control
same,T/C,"dose: 600.0 mg/kg/injection, schedule: Q01DX001 (ip), vehicle: carboxymethylcellulose (CMC)",170 % of control
OC1CN(C2CCCCC2)C1,T/C,[11],98 % of control
O=c1cc(CCc2ccccc2)cc[nH]1,T/C,[12],97 % of control
same,T/C,[13],103 % of control
same,T/C,[14],111 % of control
Cc1cc([N+](=O)[O-])ccc1NS(=O)(=O)c1ccccc1,T/C,"dose: 50.0 mg/kg/injection, schedule: Q01DX009 (ip), vehicle: Klucel (hydroxypropylcellulose) (HPC)",92 % of control
same,T/C,[1],95 % of control
same,T/C,[2],102 % of control
same,T/C,[3],95 % of control
same,T/C,[4],97 % of control
COC(=O)CSC(=O)C(O)c1ccccc1 (stereo not drawn),T/C,[2],96 % of control
same,T/C,[4],103 % of control
same,T/C,[6],103 % of control
COc1ccc(CCO)c(OC)c1,T/C,[7],98 % of control
same,T/C,[8],100 % of control
same,T/C,[9],96 % of control
same,T/C,[10],88 % of control
Cc1ccc(S(=O)(=O)N(C)CCC#N)cc1,T/C,[1],97 % of control
same,T/C,[2],100 % of control
same,T/C,[3],96 % of control
same,T/C,[4],98 % of control
same,T/C,[5],96 % of control
same,T/C,[6],96 % of control
O=C1NOCC1NCc1c(O)ccc2ccccc12 (stereo not drawn),T/C,"dose: 100.0 mg/kg/injection, schedule: Q04DX003 (ip), vehicle: saline with Tween-80",87 % of control
same,T/C,"dose: 200.0 mg/kg/injection, schedule: Q04DX003 (ip), vehicle: saline with Tween-80",100 % of control
same,T/C,"dose: 400.0 mg/kg/injection, schedule: Q04DX003 (ip), vehicle: saline with Tween-80",97 % of control
Cc1ccccc1C(C)(O)Cc1nccn1Cc1ccccc1 (stereo not drawn),T/C,[11],90 % of control
same,T/C,"dose: 200.0 mg/kg/injection, schedule: Q04DX003 (ip), vehicle: saline",95 % of control
same,T/C,"dose: 400.0 mg/kg/injection, schedule: Q04DX003 (ip), vehicle: saline",103 % of control
COc1ccc(CC(=O)C2C(=O)N(C)c3ccccc32)cc1OC (stereo not drawn),T/C,"dose: 50.0 mg/kg/injection, schedule: Q01DX001 (ip), vehicle: saline",104 % of control
same,T/C,[12],102 % of control
same,T/C,[13],96 % of control
same,T/C,[14],98 % of control

# Reference: PubChem BioAssay AID248 (DTP/NCI, 2004)
